Measured values published in article PMC6412374, “Engineering of Antimicrobial Surfaces by Using Temporin Analogs to Tune the Biocidal/antiadhesive Effect” (Molecules, 2019).
Values after ≈ are worked out from the molar mass of the structure shown. Square brackets hold non-standard residues; d marks the D form. Ends that are not written are not given here. Peptide text beside a SMILES is read from it.

Key:
[1] = system: Listeria ivanovii (Li4pVS2); assay: MBC, plating of MIC wells on agar; assay type: cell-based; conditions: free peptide in solution; MIC well and 4 wells above plated on agar, overnight; lowest concentration with at least 99.99% decrease; triplicate
Method: (§1) Non-pathogenic bacteria Listeria ivanovii Li4pVS2 (Courtesy of Prof. J.-M. Berjeaud, Poitiers University, Poitiers, France) were used to investigate the antibacterial activity of the modified surfaces. Bacterial suspensions were prepared from frozen cultures incubated overnight (37 °C under agitation at 250 rpm) in brain heart infusion (BHI) broth (BD Difco, Franklin Lakes, NJ, USA). After centrifugation at 10,000× g for 5 min and elimination of the liquid phase (supernatant) the bacteria were redisposed in NaCl 0.9% solution up to a concentration of to 2 × 10^6 colony forming unity (CFU) per mL, verified by measuring the OD620nm = 0.02.
(§2) MIC values of temporin analogs were determined using a liquid growth inhibition assay. An exponential-phase bacterial culture of Listeria ivanovii was diluted in BHI broth to an OD of 0.02 (2 × 10^6 CFU/mL). A volume of 100 μL of this bacterial suspension was mixed with 100 μL of 2-fold serial aqueous dilutions of each temporin (final concentrations from 0.78 to 100 µM). The bacterial growth was monitored by measuring the OD change during overnight incubation. MIC and MBC tests were carried out in triplicate with positive (0.7% formaldehyde) and negative (saline NaCl 0.9% solution) controls. […] The bacterial suspension corresponding to the MIC well and 4 wells above MIC were collected and deposited on agar plate in order to determine the minimal bactericidal concentration (MBC). The MBC is expressed as the lowest concentration for which a decrease of at least 99.99% is observed on agar plates after overnight incubation.

[2] = system: Listeria ivanovii (Li4pVS2); assay: MIC, liquid growth inhibition assay of free temporins in solution; assay type: cell-based; conditions: free peptide in solution; BHI broth, 2 × 10^6 CFU/mL, 2-fold serial dilutions, overnight incubation, OD read-out; lowest concentration that completely inhibits growth; triplicate
Method: as §1, §2

| Compound | MBC [1] [µM] | MIC [2] [µM] |
| --- | --- | --- |
| FASGIAGMAGKLF-NH2 [[A^2,6,9]SHa, [A^2,6,9]temporin-SHa] | >200 | – |
| FAKGIAGMAGKLF-NH2 [[A^2,6,9, K^3]SHa, [A^2,6,9, K^3]temporin-SHa] | >200 | – |
| CC[C@@H](C)[C@@H](NC(=O)CNC(=O)[C@@H](CCCCN)NC(=O)[C@@H](CC(C)C)NC(=O)[C@H](N)Cc1ccccc1)C(=O)N[C@@H](C(=O)NCC(=O)N[C@H](CCSC)C(=O)N[C@H](CC(C)C)C(=O)NCC(=O)N[C@H](CCCCN)C(=O)N[C@H](CC(C)C)C(=O)N[C@H](Cc1ccccc1)C(N)=O)C(C)C [D-[K^3]SHa, D-[K^3]temporin-SHa] (H-[dF][dL][dK]G[dI][dV]G[dM][dL]G[dK][dL][dF]-NH2; N-terminus assumed) | 3.12 (≈ 4.44 µg/mL) | 1.56 (≈ 2.22 µg/mL) |
| FAKGIAGMAGKLF [[A^2,6,9, K^3]SHa-COOH, [A^2,6,9, K^3]temporin-SHa-COOH] | 256 | – |
| FLKGIVGMLGKLF [[K^3]SHa-COOH, [K^3]temporin-SHa-COOH] | 128 | 64 |
| FLKGIVGMLGKLF-NH2 [[K^3]SHa, [K^3]temporin-SHa] | 3.12 | 1.56 |
| FLSGIVGMLGKLF-NH2 [SHa, Temporin-SHa, reference compound] | 6 | 6 |
